Data on three compounds can be found in publication PMC6770581, “New Thalidomide-Resembling Dicarboximides Target ABC50 Protein and Show Antileukemic and Immunomodulatory Activities” (Biomolecules, 2019).

The term IC50 denotes the concentration that gives 50% inhibition.

In one test the test system is MOLT-4 cells. As to the kind of experiment: MTT cytotoxicity assay, MOLT-4. Particulars: Homo sapiens, 48 h, mean ± SD. It counts as cell-based. Here is the method: Human umbilical vein endothelial cells (purchased from Life Technologies, Carlsbad, CA, USA) were cultured according to the manufacturer’s instructions in Medium 200 supplemented with Low Serum Growth Supplement. 1 × 10^4 cells were seeded on each well on a 96-well plate (Nunc, Roskilde, Denmark). The HeLa (human cervix carcinoma, cat. #93021013), CFPAC (human pancreatic adenocarcinoma, cat. #91112501), K562 (chronic myelogenous leukemia, cat. #89121407), HL-60 (acute myelogenous leukemia, cat. #98070106), and MOLT-4 (Human acute T lymphoblastic leukemia, cat. #85011413) cells were purchased from European Collection of Authenticated Cell Cultures (ECACC). They were cultured in an RPMI 1640 medium supplemented with antibiotics (streptomycin, penicillin) and 10% fetal calf serum (20% for HL60), in a 5% CO2-95% air atmosphere. 7 × 10^3 cells were seeded on each well on a 96-well plate (Nunc). 24 hours later the cells were exposed to the test compounds. The aliquots of stock solutions of the test compounds (freshly prepared in DMSO) were added to the cell cultures to yield final concentrations of 1, 10^−1, 10^−2, 10^−3, 10^−4, and 10^−5 mM. The concentration of DMSO in the cell culture medium was 1%. The IC50 value (the concentration of a test compound required to reduce the cell survival fraction to 50% of the control) was calculated from a dose-response curve and used as a measure of cellular sensitivity to a given treatment. The IC50 values are given as means (± standard deviation (SD)) from 2 independent experiments with 4 technical replicates. The cytotoxicity of all compounds was determined by the MTT (3-(4,5-dimethylthiazol-2-yl)-2,5-diphenyltetrazolium bromide) assay (Sigma, St. Louis, MO, USA). Briefly, after 24 h or 48 h of incubation with a given compound, the cells were treated with the MTT reagent and incubation was continued for 2 h. MTT-formazan crystals were dissolved in 20% SDS and 50% DMF at pH 4.7 and VIS light absorption was measured at 570 and 650 nm on a microplate reader FLUOstar Omega (BMG Labtech, Offenburg, Germany). As a control (100% viability), cells grown in the presence of 1% DMSO were used.
(In general: Tetrazolium assays rely on reduction of a dye to a coloured formazan, in cell work by metabolically active cells.)

Another test concerns caspase 3 and 7. The test is described as follows: Caspase-3/7 activity (Apo-ONE fluorescent assay) in MOLT-4 cells. It counts as cell-based, human. Particulars: 5× IC50, 18 h, normalized to 1% DMSO. The method, then:
Louis, MO). The induction of cell apoptosis was analyzed by Apo-ONE® Homogeneous Caspase-3/7 Assay (Promega, Madison, WI, USA). […] The fluorescence in each well was measured in triplicate (excitation at 485 nm, emission measured at 520 nm) using a microplate reader FLUOStar Omega (BMG-Labtech, Offenburg, Germany). For normalization of the data, the caspase activity in the control cells (exposed to 1% DMSO) was taken as 1.0. […] Luminescence was measured (in triplicate) using a microplate reader FLUOStar Omega. For normalization of the data, the caspase activity in the control cells (exposed to 1% DMSO) was taken as 1.0.

A further test deals with IKZF1 and IKZF3. As to the kind of experiment: IKZF1 and IKZF3 level by immunoblotting in K562 cells. It counts as cell-based, human. Particulars: K562, 48 h, 3 (1 µM), 5 (1 µM), 6 (1 µM). Here is the method: K562 or MOLT4 cells were seeded on 6-well plate (2 × 10^6 cells/well) in a RPMI 1640 medium containing 10% FBS. MOLT4 cells were exposed to 1% DMSO (vehicle control), test compounds 6 (2 µM), 3 (5 µM), 5 (10 µM). Similarly, K562 cells were exposed to 1% DMSO, test compounds 6 (1 µM), 3 (1 µM), 5 (1 µM) for 48 h. Cells treated with 100 µM thalidomide or 10 µM lenalidomide served as positive controls. After incubation, cells were centrifuged (600 rpm, 6 min, 24 °C), washed once with PBS and lysed in 20 mM Tris (pH 7.2) containing 1% Triton X-100 supplemented with Complete® protease inhibitors cocktail (Roche). The levels of IKZF1 and IKZF3 were assessed by immunoblotting (IB).
Cells were lysed in TBS buffer containing 1% Triton X-100 and Complete® protease inhibitor cocktail (Roche) for 15 min on ice with occasional vortexing. Insoluble material was centrifuged (12,000 rpm, 15 min, 4 °C) and supernatants were collected. Total protein concentration was measured with DC Protein Assay (Bio-Rad, Hercules, CA, USA). Cell lysates containing 30 µg of total protein were mixed with Laemli buffer supplemented with SDS and β-mercaptoethanol, denatured (10 min, 95 °C) and subjected to sodium dodecyl sulfate polyacrylamide gel electrophoresis (SDS-PAGE) electrophoresis (4% stacking and 10% resolving gels). Resolved proteins were electrotransferred (semi-dry, 90 min, 1.5 mA/cm^2) to a 0.45 µm nitrocellulose membrane (Thermo Scientific, Waltham, MA, USA). Membranes were blocked for 2 hours in TBST buffer (20 mM Tris-HCl pH 7.5, 0.9% NaCl, 0.1% Tween 20) containing 5% BSA (BioShop, Burlington, ON, Canada) and probed with primary antibodies (overnight at 4 °C) diluted in TBST buffer with 0.5% BSA. Tubulin served as a loading control for IB experiments. Anti IKZF3 (rabbit monoclonal, dilution 1:500), anti IKZF1 (rabbit polyclonal, dilution 1:500) were from Abcam. Anti IRF4 (rabbit polyclonal, dilution 1:500) were from Cell Signaling Technology. […] Protein bands intensities were analysed using Image Quant (version 5.0, GE Healthcare Life Sciences, Pittsburgh, PA, USA).

In the next test the test system is HeLa cells. Particulars: 48 h, MTT, mean ± SD; cited from earlier work.
For a further test, the system named is HL-60 cells. Particulars: 48 h, MTT, mean ± SD; cited from earlier work.

Take `CCC12C(=O)C(CC)(C(c3ccccc3)=C1c1ccccc1)C1C(=O)N(CCN3CCCCC3)C(=O)C12` (stereo not drawn) [Compound 3]: the results for the IC50 in the test on MOLT-4 cells, in the test on HeLa cells and with HL-60 cells were 9 ± 0.6 µM, greater than 100 µM and greater than 100 µM, respectively. In addition, the “activation of caspase 3/7” value with caspase 3 and 7 was “strong activation”. For the same compound, in the test with IKZF1 and IKZF3, the “level of IKZF1 and IKZF3 (immunoblotting)” value (from here on “level of IKZF1 and IKZF3”) is recorded as “modest reduction”.
As to `CCC12C(=O)C(CC)(C(c3ccccc3)=C1c1ccccc1)C1C(=O)N(CC(O)CNC(C)C)C(=O)C12` (stereo not drawn) [Compound 5], the IC50 is 20 ± 2.3 µM with MOLT-4 cells, greater than 100 µM in the test with HeLa cells and 2 ± 0.05 µM in the test with HL-60 cells. The “activation of caspase 3/7” value in the test on caspase 3 and 7 is listed as “strong activation”. Further, in the test with IKZF1 and IKZF3, the “level of IKZF1 and IKZF3” value was “significant diminution”.
Consider `CN(C)CCN1C(=O)C2C(C1=O)C1(c3ccccc3)CC2(c2ccccc2)C(c2ccccc2)=C1c1ccccc1` (stereo not drawn) [Compound 6], for which the IC50 in the test with MOLT-4 cells was 4 ± 0.2 µM; with HeLa cells, 1 ± 0.2 µM; with HL-60 cells it was 5 ± 0.24 µM. Moreover, the “activation of caspase 3/7” value in the test on caspase 3 and 7 is “strong activation”. The “level of IKZF1 and IKZF3” value in the test with IKZF1 and IKZF3 is given as “significant diminution”.
